Measured values published in paper PMC7277094 (Biomolecules, 2020).
Several values for one entry are separate records, joined by “and”; a condition that tells them apart may be missing. Equal values may be shown once. Read-outs that look alike come from different tables or passages of the source.

Tests used:
Tlp3 LBD [1] = molecular target: T1, Tlp3 LBD (Campylobacter jejuni subsp. jejuni, UniProt Q0P864); experiment: Isothermal titration calorimetry (ITC); format: binding, C. jejuni strain NCTC 11168; details: for ∆H: ITC binding enthalpy; for ∆H / ∆S / Kd: 25 °C; for ∆S: ITC binding entropy; for Kd / Binding to Tlp3 LBD detected by ITC: 10 µM Tlp3 LBD; for Binding to Tlp3 LBD detected by ITC: ligand at 10 mM
Procedure: Tlp3 LBD was dialysed against a buffer containing 100 mM Tris-HCl pH 8.0 and 150 mM NaCl. […] Calorimetry measurements were conducted on a VP-ITC MicroCal calorimeter (Malvern Instruments, UK) at 25 °C. The Tlp3 LBD sample (10 µM) in a 1.45 mL reaction cell was titrated with 25 successive 10 µL injections of ligand solution at a spacing of 200 s. All measurements were made in triplicate and corrected for heat changes measured when the ligand was titrated into the buffer. The data were integrated and normalised for protein concentration to generate binding isotherms.

Tlp3 LBD [2] = molecular target: T1, Tlp3 LBD; experiment: Fluorescence-based thermal shift assay; format: binding, C. jejuni strain NCTC 11168; details: for ΔTm at 5000 µM: read-out: Thermal Shift ∆Tm; for Thermal Shift ∆Tm: 20 μM protein, 0.8–1.6 mM Biolog compound, Tm free protein 56.3 °C
Source text: Tlp3 LBD from C. jejuni strain NCTC 11168 was expressed in E. coli, purified according to the previously published procedure and used for high-throughput screening against the compounds from the Biolog Phenotype Microarray (PM) libraries PM1, PM3B, and PM5 using thermal shift assays. […] Each plate contains 95 compounds and a negative control (water). Thermal-shift-based screening is based on the phenomenon that ligand-binding alters thermal stability of the protein, resulting in an increase or decrease in the protein’s melting temperature (Tm). Screening was performed by following the protocol previously described by McKellar et al., with minor modifications. The compounds in the Biolog PM plates were dissolved in 50 μL of water, yielding a final concentration of 10–20 mM (as indicated by the manufacturer). Each assay was performed in a 25 μL volume and contained 20 μM protein, 0.8–1.6 mM Biolog compound, 10 mM Tris-HCl pH 8.0, 150 mM NaCl, and 10× SYPRO orange reagent (5000× stock, catalogue number S5692; Sigma-Aldrich). The samples were heated from 35 °C to 80 °C at a ramp rate of 0.5 °C min^−1 using a Rotor-Gene Q real-time PCR cycler (Qiagen, Venlo, Netherlands). Protein denaturation was monitored by following changes in the SYPRO Orange fluorescence emission (λex 530 nm/λem 555 nm) that result from the dye binding to the exposed hydrophobic protein regions. All experiments were performed in triplicate. The midpoint of denaturation (the melting temperature Tm) was calculated by fitting the data to the Boltzmann sigmoidal equation for the two-state unfolding model using GraphPad Prism (version 7.02) (GraphPad Software, La Jolla, CA, USA). The thermal shift assay with the three potential ligands identified using in silico screening was performed at a ligand concentration of 5 mM, with other conditions the same.

C. jejuni WT strain = experiment: Nutrient-depleted hard agar plug chemotaxis assay, WT strain; format: cell-based, C. jejuni NCTC 11168; details: plugs prepared from 50–200 mM compound, CI > 1 attractant, < 1 repellent
Tlp3 LBD [3] = experiment: Co-crystallisation with Tlp3 LBD and X-ray electron density analysis; format: binding, C. jejuni; details: co-crystallised with 8 mM ligand; 1.4–1.5 Å resolution
Procedure: The solution was then clarified by centrifugation at 13,000 g, 4 °C for 20 min and protein crystallisation was carried out by the hanging drop vapour diffusion method using crystallisation conditions similar to those described previously. Briefly, crystals were grown in 2 µL hanging drops suspended over 500 µL reservoir solution containing 22% (w/v) polyethylene glycol 3350, 100 mM sodium citrate pH 5.0 and 200 mM ammonium sulphate. The hanging drop was prepared by adding 1 µL of the protein/ligand mix to 1 µL of the reservoir solution. Crystals of all Tlp3 LBD/ligand complexes had similar unit-cell parameters and belonged to space group P2_1 (Table 2), with two molecules in the asymmetric unit.
To perform data collection at cryogenic temperatures, the crystals were briefly soaked in a cryoprotectant solution consisting of 26% (w/v) polyethylene glycol 3350, 100 mM sodium citrate pH 5.0, 200 mM ammonium sulphate, 10% (v/v) glycerol, and 10 mM respective ligand, and then flash-cooled by plunging them into liquid nitrogen. X-ray diffraction data were collected at 100 K on the MX1 and MX2 beamlines of the Australian Synchrotron. The data were processed using iMOSFLM [65] and scaled with AIMLESS [66] from the CCP4 software suite.
The crystal structures were determined using molecular replacement with PHASER [68] and the protein coordinates of the Tlp3 LBD/isoleucine complex (PDB code, 4XMR) as a search model. The models were refined with PHENIX [69] and manually rebuilt where necessary using COOT [70]. Analysis of the stereochemical quality of the final models was performed using MOLPROBITY [71]. The accessible surface area was calculated using AREAIMOL from CCP4. The structure figures were produced using PyMOL 4.1 [72].

Tlp3 LBD [4] = molecular target: T1, Tlp3 LBD; design: method as in PMID 26457436; details: L-isoleucine not among ligands titrated here; listed as footnoted to previous study ref 32; cited from earlier work
Tlp3 LBD Tyr118Ala = system: Tlp3 LBD Tyr118Ala; design: method as in PMID 26457436; details: Tyr118Ala vs wild-type Tlp3 LBD ref 32; cited from earlier work
C. jejuni Δtlp3 mutant = experiment: Nutrient-depleted hard agar plug chemotaxis assay, Δtlp3 mutant; format: cell-based, C. jejuni NCTC 11168; details: CI > 1 attractant, < 1 repellent
[5] = single-site model, NB = no binding detected by ITC

T1 sequence (Q0P864 entry or part of it): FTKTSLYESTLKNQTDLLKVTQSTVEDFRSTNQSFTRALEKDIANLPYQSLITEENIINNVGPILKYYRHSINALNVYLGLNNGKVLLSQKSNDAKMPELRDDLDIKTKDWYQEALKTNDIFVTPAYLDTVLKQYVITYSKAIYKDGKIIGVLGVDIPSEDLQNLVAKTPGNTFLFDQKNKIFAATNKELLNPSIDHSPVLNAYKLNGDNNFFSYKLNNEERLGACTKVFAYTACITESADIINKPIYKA

CCC[C@@H](C)C(N)C(=O)O (stereo in doubt) [β-methyl-L-norleucine]
∆H (Tlp3 LBD [1]): -6.2 ± 0.2 kcal/mol | ∆S (Tlp3 LBD [1]): −4.77 cal mol^−1 deg^−1 | Kd (Tlp3 LBD [1]; [5]): 294 ± 14 µM | ΔTm at 5000 µM (Tlp3 LBD [2]): 3.7 ± 0.2 °C

Nc1ccn([C@H]2C[C@H](O)[C@@H](CO)O2)c(=O)n1 [2-deoxycytidine]
Binding to Tlp3 LBD detected by ITC (Tlp3 LBD [1]): no binding | Thermal Shift ∆Tm (Tlp3 LBD [2]): 1.4 ± 0.8 °C

CCC(C)(C)[C@H](N)C(=O)O [3-methyl-L-isoleucine]
∆H (Tlp3 LBD [1]): -5.7 ± 0.2 kcal/mol | ∆S (Tlp3 LBD [1]): −4.03 cal mol^−1 deg^−1 | Kd (Tlp3 LBD [1]; [5]): 484 ± 30 µM | Reduction of binding affinity (two methyl groups at Position 3) (Tlp3 LBD [1]; compared with single methyl substitution at Position 3 (L-isoleucine)): at least 5 fold | ΔTm at 5000 µM (Tlp3 LBD [2]): 2 ± 0.1 °C

CC(C)[C@H](C)[C@H](N)C(=O)O [4-methyl-L-isoleucine]
∆H (Tlp3 LBD [1]): -5.1 ± 0.2 kcal/mol | ∆S (Tlp3 LBD [1]): −1.01 cal mol^−1 deg^−1 | Kd (Tlp3 LBD [1]; [5]): 324 ± 20 µM | ΔTm at 5000 µM (Tlp3 LBD [2]): 2.8 ± 0.3 °C

C[C@H](N)C(=O)N[C@H](C(=O)O)[C@H](C)O [Ala-Thr]
Binding to Tlp3 LBD detected by ITC (Tlp3 LBD [1]): no binding | Thermal Shift ∆Tm (Tlp3 LBD [2]): 1.1 ± 0.3 °C

C[C@H](N)C(=O)O [L-alanine]
∆H (Tlp3 LBD [1]): -150.2 ± 54.5 kcal/mol | ∆S (Tlp3 LBD [1]): −495.50 cal mol^−1 deg^−1 | Kd (Tlp3 LBD [1]; 50 mM ligand): ~5000 µM and 5000 µM | Kd (Tlp3 LBD [1]; [5]): 4980 ± 917 µM | Chemotactic response (chemotactic index CI) (C. jejuni WT strain): Tlp3-dependent attractant response | Thermal Shift ∆Tm (Tlp3 LBD [2]): −0.6 ± 0.7 °C

N=C(N)NCCC[C@H](N)C(=O)O [L-arginine]
Electron density for ligand bound to Tlp3 LBD in crystal (Tlp3 LBD [3]): no electron density | Binding to Tlp3 LBD detected by ITC (Tlp3 LBD [1]): no binding

N[C@@H](CC(=O)O)C(=O)O [L-aspartic acid]
Electron density for ligand bound to Tlp3 LBD in crystal (Tlp3 LBD [3]): no electron density | Binding to Tlp3 LBD detected by ITC (Tlp3 LBD [1]): no binding

CC[C@H](C)[C@H](N)C(=O)O [L-isoleucine]
∆H (Tlp3 LBD [4]): -4.4 ± 0.2 kcal/mol | ∆S (Tlp3 LBD [4]): 3.6 cal mol^−1 deg^−1 | Reduction in binding affinity on Tyr118Ala substitution (Tlp3 LBD Tyr118Ala): ≥ 35 fold

CC(C)C[C@H](N)C(=O)O [L-leucine]
∆H (Tlp3 LBD [1]): -4.6 ± 0.1 kcal/mol | ∆S (Tlp3 LBD [1]): 2.9 cal mol^−1 deg^−1 | Kd (Tlp3 LBD [1]; [5]): 105 ± 6 µM | Thermal Shift ∆Tm (Tlp3 LBD [2]): 2.4 ± 0.2 °C

NCCCC[C@H](N)C(=O)O [L-lysine]
Electron density for ligand bound to Tlp3 LBD in crystal (Tlp3 LBD [3]): no electron density | Binding to Tlp3 LBD detected by ITC (Tlp3 LBD [1]): no binding

N[C@@H](Cc1ccccc1)C(=O)O [L-phenylalanine]
∆H (Tlp3 LBD [1]): -5.9 ± 0.3 kcal/mol | ∆S (Tlp3 LBD [1]): −5.44 cal mol^−1 deg^−1 | Kd (Tlp3 LBD [1]; [5]): 730 ± 55 µM | Chemotactic response (chemotactic index CI) (C. jejuni WT strain): Tlp3-dependent attractant response | Thermal Shift ∆Tm (Tlp3 LBD [2]): −0.3 ± 0.4 °C

CC(C)[C@H](N)C(=O)O [L-valine]
∆H (Tlp3 LBD [1]): -4.4 ± 0.2 kcal/mol | ∆S (Tlp3 LBD [1]): 0.8 cal mol^−1 deg^−1 | Kd (Tlp3 LBD [1]; [5]): 405 ± 27 µM | Thermal Shift ∆Tm (Tlp3 LBD [2]): 1.3 ± 0.1 °C

O=C(O)CC(O)C(=O)O (stereo not drawn) [malic acid]
Electron density for ligand bound to Tlp3 LBD in crystal (Tlp3 LBD [3]): no electron density

COC(=O)C(C)=O [methyl pyruvate]
Binding to Tlp3 LBD detected by ITC (Tlp3 LBD [1]): no binding | Thermal Shift ∆Tm (Tlp3 LBD [2]): −1.8 ± 0.0 °C

c1ncc2nc[nH]c2n1 [purine]
Binding to Tlp3 LBD detected by ITC (Tlp3 LBD [1]): did not bind

N[C@@H](CO)C(=O)O [serine, L-serine]
Chemotactic response (chemotactic index CI) (C. jejuni Δtlp3 mutant): did not affect

CCC[C@@H](N)C(=O)O [α-amino-N-valeric acid]
∆H (Tlp3 LBD [1]): -6.5 ± 0.2 kcal/mol | ∆S (Tlp3 LBD [1]): −4.5 cal mol^−1 deg^−1 | Kd (Tlp3 LBD [1]; [5]): 168 ± 9 µM | Thermal Shift ∆Tm (Tlp3 LBD [2]): 1.4 ± 0.3 °C
